{"source": "patent US9593136B2", "about": "(priority 2011, dated 2017)", "key": {"Mtb H37Rv (ATCC 27294)": {"system": "Mtb H37Rv (ATCC 27294)", "test": "microbe, parasite or virus in culture", "format": "cell-based, Mycobacterium tuberculosis", "details": "for MIC: Mycobacterium tuberculosis"}, "M. tuberculosis Dxr": {"target": "M. tuberculosis Dxr (Mycobacterium tuberculosis, UniProt P9WNS1)", "sequence (P9WNS1 whole entry, looked up)": "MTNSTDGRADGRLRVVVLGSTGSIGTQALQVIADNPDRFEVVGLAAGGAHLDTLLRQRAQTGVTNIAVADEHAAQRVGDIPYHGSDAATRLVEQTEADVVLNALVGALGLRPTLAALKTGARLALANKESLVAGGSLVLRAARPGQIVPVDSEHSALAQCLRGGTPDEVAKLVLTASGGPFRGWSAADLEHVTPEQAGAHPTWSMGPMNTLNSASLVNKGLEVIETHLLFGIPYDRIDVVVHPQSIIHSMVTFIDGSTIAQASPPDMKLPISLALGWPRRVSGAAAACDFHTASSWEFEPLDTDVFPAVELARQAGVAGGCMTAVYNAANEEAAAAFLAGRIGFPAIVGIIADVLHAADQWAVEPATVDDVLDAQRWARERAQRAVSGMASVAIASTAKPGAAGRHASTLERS", "test": "biochemical"}, "E. coli k12": {"system": "E. coli k12", "test": "microbe, parasite or virus in culture", "format": "cell-based"}, "B. anthracis": {"system": "B. anthracis", "test": "microbe, parasite or virus in culture", "format": "cell-based, Bacillus anthracis"}, "E. coli tolc": {"system": "E. coli tolc", "test": "microbe, parasite or virus in culture", "format": "cell-based"}, "S. aureus (MSSA)": {"system": "S. aureus (MSSA)", "test": "microbe, parasite or virus in culture", "format": "cell-based"}, "E. faecalis": {"system": "E. faecalis", "test": "microbe, parasite or virus in culture", "format": "cell-based"}, "Acinetobacter": {"system": "Acinetobacter", "test": "microbe, parasite or virus in culture", "format": "cell-based"}, "MRSA NRS 70": {"system": "MRSA NRS 70", "test": "microbe, parasite or virus in culture", "format": "cell-based, S. aureus"}, "[1]": {"details": "read-out: Mtb MIC (ug/mL) (7H9)"}, "[2]": {"details": "read-out: Mtb MIC (ug/mL) (GAST)"}}, "note": "Like-named read-outs stand apart in the source and are kept apart here."}
{"smiles": "CC(=O)N(CCCP(=O)(O)O)OCC1CCCCC1", "note": "[GSJ75]", "values": [{"measurement": "MIC", "setting": "Mtb H37Rv (ATCC 27294); read-out: Mtb MIC (ug/mL)", "result": "> 200", "unit": "µg/mL"}, {"measurement": "IC50", "setting": "M. tuberculosis Dxr; Mtb Dxr IC50 (ug/mL)", "result": 212, "unit": "µM"}]}
{"smiles": "CCOP(=O)(CCCN(OCC1CCCCC1)C(C)=O)OCC", "note": "[GSJ71]", "values": [{"measurement": "MIC", "setting": "Mtb H37Rv (ATCC 27294); [1]", "result": "≥ 400", "unit": "µg/mL"}, {"measurement": "MIC", "setting": "Mtb H37Rv (ATCC 27294); [2]", "result": "200 to 400", "unit": "µg/mL"}]}
{"smiles": "CCOP(=O)(CCCN(OCc1ccc(-c2ccccc2)cc1)C(C)=O)OCC", "note": "[GSJ72]", "values": [{"measurement": "MIC", "setting": "Mtb H37Rv (ATCC 27294); [1]", "result": 200, "unit": "µg/mL"}, {"measurement": "MIC", "setting": "Mtb H37Rv (ATCC 27294); [2]", "result": 100, "unit": "µg/mL"}]}
{"smiles": "CC(=O)N(CCCP(=O)(OCOC(=O)C(C)(C)C)OCOC(=O)C(C)(C)C)OCc1ccc(-c2ccccc2)cc1", "note": "[GSJ97]", "values": [{"measurement": "MIC", "setting": "Mtb H37Rv (ATCC 27294); read-out: Mtb MIC (ug/mL)", "result": 12.5, "unit": "µg/mL"}]}
{"smiles": "O=C(CCc1ccccc1)N(O)CCCP(=O)(O)O", "note": "[GSJ 51]", "values": [{"measurement": "MIC", "setting": "Mtb H37Rv (ATCC 27294); read-out: Mtb MIC (ug/mL)", "result": "> 200", "unit": "µg/mL"}, {"measurement": "IC50", "setting": "M. tuberculosis Dxr; IC50 (uM)", "result": 2.72, "unit": "µM"}, {"measurement": "IC50", "setting": "M. tuberculosis Dxr; IC50 (ug/ml)", "result": 2.92, "unit": "µM"}, {"measurement": "IC50", "setting": "M. tuberculosis Dxr; Mtb Dxr IC50 (ug/mL)", "result": 2.92, "unit": "µM"}]}
{"smiles": "CCOP(=O)(CCCN(O)C(C)=O)OCC", "note": "[GSJ21]", "values": [{"measurement": "Mtb MIC", "setting": "Mtb H37Rv (ATCC 27294)", "result": ">200", "unit": "µg/mL"}]}
{"smiles": "CCOP(=O)(CCCN(O)C=O)OCC", "note": "[Compound 10, Diethyl fosmidomycin]", "values": [{"measurement": "MIC E. coli k12", "setting": "E. coli k12", "result": ">200", "unit": "µg/mL"}, {"measurement": "MIC B. anthracis", "setting": "B. anthracis", "result": ">200", "unit": "µg/mL"}, {"measurement": "MIC E. coli tolc", "setting": "E. coli tolc", "result": ">200", "unit": "µg/mL"}, {"measurement": "MIC M. tuberculosis (H37Rv)", "setting": "Mtb H37Rv (ATCC 27294)", "result": 400, "unit": "µg/mL"}, {"measurement": "MIC S. aureus (MSSA)", "setting": "S. aureus (MSSA)", "result": ">200", "unit": "µg/mL"}, {"measurement": "MIC E. faecalis", "setting": "E. faecalis", "result": ">200", "unit": "µg/mL"}, {"measurement": "MIC Acinetobacter", "setting": "Acinetobacter", "result": ">200", "unit": "µg/mL"}, {"measurement": "MIC S. aureus (MRSA)", "setting": "MRSA NRS 70", "result": ">200", "unit": "µg/mL"}]}
{"smiles": "O=C(C1CCCCC1)N(O)CCCP(=O)([O-])O.[Na+]", "note": "[ERJ 116]", "values": [{"measurement": "MIC", "setting": "Mtb H37Rv (ATCC 27294); [1]", "result": "> 200", "unit": "µg/mL"}, {"measurement": "MIC", "setting": "Mtb H37Rv (ATCC 27294); [2]", "result": "> 200", "unit": "µg/mL"}, {"measurement": "IC50", "setting": "M. tuberculosis Dxr; Mtb Dxr IC50 (ug/mL)", "result": 57.8, "unit": "µM"}]}
{"smiles": "CCOP(=O)(CCCN(OCc1ccc(C)cc1)C(C)=O)OCC", "note": "[GSJ114]", "values": [{"measurement": "MIC", "setting": "Mtb H37Rv (ATCC 27294); read-out: Mtb MIC (ug/mL)", "result": "> 400", "unit": "µg/mL"}]}
{"smiles": "CCOP(=O)(CCCN(OCc1ccc2ccccc2c1)C(C)=O)OCC", "note": "[GSJ73]", "values": [{"measurement": "MIC", "setting": "Mtb H37Rv (ATCC 27294); [1]", "result": 200, "unit": "µg/mL"}, {"measurement": "MIC", "setting": "Mtb H37Rv (ATCC 27294); [2]", "result": 100, "unit": "µg/mL"}]}
{"smiles": "CCOP(=O)(CCCN(OCc1ccccc1-c1ccccc1)C(C)=O)OCC", "note": "[GSJ101]", "values": [{"measurement": "MIC", "setting": "Mtb H37Rv (ATCC 27294); read-out: Mtb MIC (ug/mL)", "result": "200 to 400", "unit": "µg/mL"}]}
{"smiles": "CCOP(=O)(CCCN(OCc1cccc2ccccc12)C(C)=O)OCC", "note": "[GSJ116]", "values": [{"measurement": "MIC", "setting": "Mtb H37Rv (ATCC 27294); read-out: Mtb MIC (ug/mL)", "result": 400, "unit": "µg/mL"}]}
{"smiles": "CC(=O)N(O)CCCP(=O)(OCOC(=O)c1ccccc1)OCOC(=O)c1ccccc1", "note": "[Compound 26]", "values": [{"measurement": "MIC E. coli k12", "setting": "E. coli k12", "result": ">200", "unit": "µg/mL"}, {"measurement": "MIC B. anthracis", "setting": "B. anthracis", "result": 100, "unit": "µg/mL"}, {"measurement": "MIC E. coli tolc", "setting": "E. coli tolc", "result": 50, "unit": "µg/mL"}, {"measurement": "MIC M. tuberculosis (H37Rv)", "setting": "Mtb H37Rv (ATCC 27294)", "result": "25 to 100", "unit": "µg/mL"}, {"measurement": "antitubercular activity (in words)", "setting": "Mtb H37Rv (ATCC 27294)", "result": "better antitubercular activity"}, {"measurement": "MIC S. aureus (MSSA)", "setting": "S. aureus (MSSA)", "result": ">200", "unit": "µg/mL"}, {"measurement": "MIC E. faecalis", "setting": "E. faecalis", "result": ">200", "unit": "µg/mL"}, {"measurement": "MIC Acinetobacter", "setting": "Acinetobacter", "result": 200, "unit": "µg/mL"}, {"measurement": "MIC S. aureus (MRSA)", "setting": "MRSA NRS 70", "result": ">200", "unit": "µg/mL"}]}
{"smiles": "CCOP(=O)(CCCN(OCc1ccc(Cl)c(Cl)c1)C(C)=O)OCC", "note": "[GSJ102]", "values": [{"measurement": "MIC", "setting": "Mtb H37Rv (ATCC 27294); read-out: Mtb MIC (ug/mL)", "result": 200, "unit": "µg/mL"}]}
{"smiles": "CCCCCCOP(=O)(CCCN(O)C(C)=O)OCCCCCC", "note": "[Compound 21]", "values": [{"measurement": "MIC M. tuberculosis (H37Rv)", "setting": "Mtb H37Rv (ATCC 27294)", "result": 100, "unit": "µg/mL"}]}
{"smiles": "CCOP(=O)(CCCN(OCc1ccc(-c2ccccc2C(=O)OC)cc1)C(C)=O)OCC", "note": "[GSJ112]", "values": [{"measurement": "MIC", "setting": "Mtb H37Rv (ATCC 27294); read-out: Mtb MIC (ug/mL)", "result": 400, "unit": "µg/mL"}]}
{"smiles": "CC(=O)N(CCCP(=O)(OCOC(=O)c1ccccc1)OCOC(=O)c1ccccc1)OCCCCc1ccccc1", "note": "[GSJ92]", "values": [{"measurement": "MIC", "setting": "Mtb H37Rv (ATCC 27294); [1]", "result": 25, "unit": "µg/mL"}]}
{"smiles": "O=C(CCCc1ccccc1)N(O)CCCP(=O)(O)O", "note": "[Compound 8, Sodium hydrogen 3-(N-hydroxy-4-phenylbutanamido)propylphosphonate]", "values": [{"measurement": "IC50", "setting": "M. tuberculosis Dxr; IC50 (μM)", "result": 3.1, "unit": "µM"}]}
{"smiles": "CCOP(=O)(CCCN(O)C=O)OCC", "note": "[Compound 5c]", "values": [{"measurement": "MIC 7H9", "setting": "Mtb H37Rv (ATCC 27294)", "result": 250, "unit": "µg/mL"}]}
{"smiles": "CC(=O)N(CCCP(=O)(O)O)OCc1ccc2ccccc2c1", "note": "[GSJ77]", "values": [{"measurement": "MIC", "setting": "Mtb H37Rv (ATCC 27294); read-out: Mtb MIC (ug/mL)", "result": "≥ 200", "unit": "µg/mL"}, {"measurement": "IC50", "setting": "M. tuberculosis Dxr; Mtb Dxr IC50 (ug/mL)", "result": 47.7, "unit": "µM"}]}
{"smiles": "CCOP(=O)(CCCN(O)C(=O)C1CCCCC1)OCC", "note": "[ERJ 112]", "values": [{"measurement": "MIC", "setting": "Mtb H37Rv (ATCC 27294); [1]", "result": "> 200", "unit": "µg/mL"}, {"measurement": "MIC", "setting": "Mtb H37Rv (ATCC 27294); [2]", "result": 100, "unit": "µg/mL"}]}
{"smiles": "CCOP(=O)(CCCN(OCc1ccc(OC(F)(F)F)cc1)C(C)=O)OCC", "note": "[GSJ110]", "values": [{"measurement": "MIC", "setting": "Mtb H37Rv (ATCC 27294); read-out: Mtb MIC (ug/mL)", "result": 400, "unit": "µg/mL"}]}
{"smiles": "CC(=O)N(CCCP(=O)(O)O)OCC1CCCCC1", "note": "[Compound 6, Sodium hydrogen 3-(N-(cyclohexylmethoxy)acetamido)propylphosphonate]", "values": [{"measurement": "IC50", "setting": "M. tuberculosis Dxr; IC50 (μM)", "result": 198, "unit": "µM"}]}
{"smiles": "CCOP(=O)(CCCN(OCc1cccc(OC(F)(F)F)c1)C(C)=O)OCC", "note": "[GSJ109]", "values": [{"measurement": "MIC", "setting": "Mtb H37Rv (ATCC 27294); read-out: Mtb MIC (ug/mL)", "result": 400, "unit": "µg/mL"}]}
{"smiles": "NNC(=O)c1ccncc1", "note": "[Isoniazid, reference compound]", "values": [{"measurement": "MIC", "setting": "Mtb H37Rv (ATCC 27294); read-out: MIC 7H9 (μg/mL)", "result": 0.04, "unit": "µg/mL"}, {"measurement": "MIC", "setting": "Mtb H37Rv (ATCC 27294); read-out: MIC GAST/Fe (μg/mL)", "result": 0.02, "unit": "µg/mL"}]}
{"smiles": "CC(=O)N(CCCP(=O)(O)O)OCCCc1ccccc1", "note": "[Compound 4, Sodium hydrogen 3-(N-(3-phenylpropoxy)acetamido)propylphosphonate]", "values": [{"measurement": "remaining activity at 100 µg/mL", "setting": "M. tuberculosis Dxr; read-out: % Remaining Enzyme Activity at 100 μg/mL", "result": 100, "unit": "%"}]}
{"smiles": "CC(=O)N(CCCP(=O)(OCOC(=O)C(C)(C)C)OCOC(=O)C(C)(C)C)OCCCCc1ccccc1", "note": "[GSJ89]", "values": [{"measurement": "MIC", "setting": "Mtb H37Rv (ATCC 27294); [1]", "result": 12.5, "unit": "µg/mL"}, {"measurement": "MIC", "setting": "Mtb H37Rv (ATCC 27294); [2]", "result": "6.25 to 12.5", "unit": "µg/mL"}]}
{"smiles": "CCOP(=O)(CCCN(OCc1cc(OC)cc(OC)c1)C(C)=O)OCC", "note": "[GSJ111]", "values": [{"measurement": "MIC", "setting": "Mtb H37Rv (ATCC 27294); read-out: Mtb MIC (ug/mL)", "result": "> 400", "unit": "µg/mL"}]}
